From patent US4968826A, “Platinum complexes and antitumor agents containing them as an active ingredient” (Shionogi & Co., Ltd., priority 1989, dated 1990)

Tests used:
L1210/CDDP = test: Antitumor effect (ILS) in mice inoculated i.p. with cisplatin-resistant murine leukemia L1210/CDDP; format: in vivo, murine leukemia cells in BDF1 mice; conditions: for Number of mice surviving 30 days or longer: A: of 6 mice; for chemotherapy index (CI): from ILS30 and ILSmax, the greater, the more effective; for ILS30 (dose of achieving 30% ILS) / ILSmax (dose of achieving the maximum ILS): i.p.
Excerpt: (§1) Antitumor activities against murine leukemia cells (L1210) and cisplatin-resistant murine leukemia cells (L1210/CDDP):
(§2) Murine leukemia L1210 (or L1210/CDDP) ascitic cells (1×10^5 cells) (5×10^5 cells for L1210/CDDP) were intraperitoneally inoculated to BDF1 mice (each group consisting 6~10 mice), and on the next day a predetermined amount of the test compound was intraperitoneally administered. 0.9% physiological saline was used as a solvent for injection.
(§3) From the average survival days (a) in each test group and those (b) of the non-treated control group, the increase of lifespan (ILS) was calculated according to the following formula. [formula]
(§4) As compared with the non-treated control group, the dose of achieving 30% ILS (ILS30) and the dose of achieving the maximum ILS (ILSmax) were obtained, from which the chemotherapy index (CI) was calculated. [formula]

L1210 = test: Antitumor effect (ILS) in mice inoculated i.p. with murine leukemia L1210; format: in vivo, murine leukemia cells in BDF1 mice; conditions: for Number of mice survived 30 days or longer: of 7 mice; for chemotherapy index (CI): from ILS30 and ILSmax, the greater, the more effective; for ILS30 (dose of achieving 30% ILS) / ILS max (dose of achieving the maximum ILS): i.p.
Excerpt: as §1, §2, §3, §4

[1] = system: murine nucleated bone marrow cells; test: Hemotoxicity: nucleated bone marrow cell count (NBMC) in femora; format: in vivo, male CDF1 mice; conditions: 4 days after
Excerpt: (§5) Influence against murine nucleated bone marrow cell count, megakaryocyte count and platelet count in peripheral blood:
(§6) After a single intravenous administration of test compounds to male CDF1 mice (7 weeks old), hemotoxicity was investigated by counting the nucleated bone marrow cell in femora (NBMC), megakaryocyte (MEG) and platelet (PLT) in peripheral blood. Measuring timing was taken when the three indices reached the minimal value, namely 4 days after administration for NBMC, and 7 days after for MEG and PLT.
(§7) Changes in the counts of nucleated bone marrow cells (NBMC), megakaryocytes (MEG) and platelets (PLT) in peripheral blood induced by administration of the test compounds are shown as hemotoxicity, expressed as the ratio of the value of each index in the test group to that of the non-treated conrol group as a percentage.

kidneys = test: Evaluation of nephrotoxicity in mice; format: in vivo, male CDF1 mice; conditions: for Creatinine / Urea nitrogen: mouse, in vivo, iv
Method: Evaluation of nephrotoxicity in mice:
After a single intravenous administration of Test Compound A to male CDF1 mice (6 weeks old) at a rate of 160 or 320 mg/kg*, the levels of creatinine and urea nitrogen in plasma were measured. The mice were presented for pathological examination of kidneys four days after administration. (*: 320 mg/kg would be a lethal dose if the observation period was further extended.)

Colon tumor 38 = test: Antitumor activity against Colon tumor 38 transplanted in mice; format: in vivo, BDF1 mice; conditions: for chemotherapy index (CI): from ED50 and LD50, the greater, the more effective; for ED 50 (dose of 50% growth inhibition in the mean tumor size): i.v. on next day and 8th day after
Excerpt: Antitumor activity against Colon tumor 38:
A tumor segment of Colon tumor 38 was transplanted beneath the dorsal skin of BDF1 mice (6 to 10 mice in each group), and the test compounds were intravenously administered on the next day and on the 8th day after the next day, respectively. As solvent for injection, 0.9% physiological saline was used.
Test Compounds A, C, D and E were same as those used in Experiment 1.

[2] = system: platelets in peripheral blood; test: Hemotoxicity: platelet count (PLT) in peripheral blood; format: in vivo, male CDF1 mice; conditions: 7 days after
Excerpt: as §5, §6, §7

megakaryocytes = test: Hemotoxicity: megakaryocyte count (MEG); format: in vivo, male CDF1 mice; conditions: 7 days after
Excerpt: as §5, §6, §7

[3] = 30.0 mg/kg (1/6 LD90) single i.v.

Row | Compound | increase of lifespan (ILS) (L1210/CDDP; 5 mg/kg i.p.) | increase of lifespan (ILS) (L1210/CDDP; 10 mg/kg i.p.) | increase of lifespan (ILS) (L1210/CDDP; 20 mg/kg i.p.) | increase of lifespan (ILS) (L1210/CDDP; 40 mg/kg i.p.) | Number of mice surviving 30 days or longer (L1210/CDDP; 40 mg/kg i.p., B: of 7 mice) | increase of lifespan (ILS) (L1210/CDDP; 80 mg/kg i.p.) | Number of mice surviving 30 days or longer (L1210/CDDP; 80 mg/kg i.p., B: of 7 mice) | increase of lifespan (ILS) (L1210/CDDP; 160 mg/kg i.p.) | chemotherapy index (CI) (L1210/CDDP) | ILS30 (dose of achieving 30% ILS) (L1210/CDDP) | ILSmax (dose of achieving the maximum ILS) (L1210/CDDP) | increase of lifespan (ILS) (L1210; 10 mg/kg i.p.) | increase of lifespan (ILS) (L1210; 20 mg/kg i.p.) | increase of lifespan (ILS) (L1210; 40 mg/kg i.p.) | increase of lifespan (ILS) (L1210; 80 mg/kg i.p.) | increase of lifespan (ILS) (L1210; 160 mg/kg i.p.) | ILS30 (dose of achieving 30% ILS) (L1210) | ILS max (dose of achieving the maximum ILS) (L1210) | Solubility in water | ED 50 (dose of 50% growth inhibition in the mean tumor size) (Colon tumor 38) | further results
1 | (1R,2R-Diaminocyclohexane)[1-hydroxy-1-cyclopropanecarboxylato(2-)-O^1,O^2 ]platinum (II) [Test Compound B] | 6% | 14% | 4% | > 93% | 3 | > 179% | 6 | -16% | 3.3 | 24 mg/kg | 80 mg/kg | 10% | 21% | 22% | 66% | > 83% | 45 mg/kg | 160 mg/kg | 30 mg/mL | – | Number of mice survived 30 days or longer (L1210; 160 mg/kg i.p.): 2; chemotherapy index (CI) (L1210): 3.6
2 | (1R,2R-Diaminocyclohexane)[1-hydroxy-1-cyclopentanecarboxylato(2-)-O^1,O^2 ]platinum (II) [Test Compound A] | 1% | 5% | > 50% | > 56% | 2 | > 110% | 4 | 1% | 5.5 | 14.5 mg/kg | 80 mg/kg | 16% | 19% | 37% | > 81% | > 168% | 31 mg/kg | 160 mg/kg | > 500 mg/mL | 164.9 mg/kg | Hemotoxicity NBMC (ratio to non-treated control) ([1]; 31.0 mg/kg single i.v.): 108 percentage; Hemotoxicity NBMC (ratio to non-treated control) ([1]; 62.0 mg/kg (1/5 LD90) single i.v.): 87 percentage; Number of mice surviving 30 days or longer (L1210/CDDP; 20 mg/kg i.p.): 2; increase of lifespan (ILS) (L1210; 5 mg/kg i.p.): 10%; Number of mice survived 30 days or longer (L1210; 40 mg/kg i.p.): 1; Number of mice survived 30 days or longer (L1210; 80 mg/kg i.p.): 3; Number of mice survived 30 days or longer (L1210; 160 mg/kg i.p.): 1; increase of lifespan (ILS) (L1210; 320 mg/kg i.p.): 14%; chemotherapy index (CI) (L1210): 5.2; Creatinine (kidneys; 160 mg/kg): 0.26; Urea nitrogen (kidneys; 160 mg/kg): 22.6 mg/dL; Creatinine (kidneys; 320 mg/kg): 0.27; Urea nitrogen (kidneys; 320 mg/kg): 23.3 mg/dL; lethal dose (kidneys; single i.v., male CDF1 mice, if the observation period was further extended): 320 mg/kg; chemotherapy index (CI) (Colon tumor 38): 2.7
3 | (1R,2R-Diaminocyclohexane)[2-hydroxy-2-methylbutyrato(2-)-O^1, O^2 -]platinum (II) [Test Compound C] | – | – | – | – | – | – | – | – | – | – | – | – | – | – | – | – | – | – | – | 106.2 mg/kg | chemotherapy index (CI) (Colon tumor 38): 4.3
4 | N.N.O=C([O-])C1(C(=O)[O-])CCC1.[Pt+2] [Test Compound E, Carboplatin] | – | – | – | – | – | – | – | – | – | ineffective | – | – | – | – | – | – | – | – | 16 mg/mL | Ineffective | Hemotoxicity NBMC (ratio to non-treated control) [1, 3]: 78 percentage; Hemotoxicity NBMC (ratio to non-treated control) ([1]; 60.0 mg/kg single i.v.): 75 percentage; Hemotoxicity NBMC (ratio to non-treated control) ([1]; 120.0 mg/kg single i.v.): 28 percentage; Hemotoxicity PLT (ratio to non-treated control) [2, 3]: 89 percentage; Hemotoxicity PLT (ratio to non-treated control) ([2]; 60.0 mg/kg single i.v.): 65 percentage; Hemotoxicity PLT (ratio to non-treated control) ([2]; 120.0 mg/kg single i.v.): 35 percentage; Hemotoxicity MEG (ratio to non-treated control) (megakaryocytes; [3]): 60 percentage; Hemotoxicity MEG (ratio to non-treated control) (megakaryocytes; 60.0 mg/kg single i.v.): 45 percentage; Hemotoxicity MEG (ratio to non-treated control) (megakaryocytes; 120.0 mg/kg single i.v.): 8 percentage
5 | N.N.[Cl][Pt][Cl] [Test Compound D, Cisplatin, reference compound] | – | – | – | – | – | – | – | – | – | ineffective | – | – | – | – | – | – | 2.7 mg/kg | 10 mg/kg | – | 18.3 mg/kg | –
